Test results: patent US20250296953A1, “3,4-THIAZOLO-STEROIDS AND METHODS OF MAKING AND USING THE SAME” (Arkansas State University - Jonesboro, priority 2018, published 2025)

Test system: 60 different human tumor cell lines
Assay: NCI Development Therapeutics Program 60 cell line screen, one dose
Type: cell-based
[1] = Non-small Cell Lung Cancer, A549/ATCC
[2] = Non-small Cell Lung Cancer, EKVX
[3] = Non-small Cell Lung Cancer, HOP-62
[4] = Non-small Cell Lung Cancer, NCI-H23
[5] = Non-small Cell Lung Cancer, NCI-H226
[6] = Non-small Cell Lung Cancer, NCI-H322M
[7] = Non-small Cell Lung Cancer, NCI-H460
[8] = Non-small Cell Lung Cancer, HOP-92

## C[C@]12CC[C@H]3[C@@H](CC=C4c5sc(-c6ccc(O)cc6)nc5CC[C@@]43C)[C@@H]1CC[C@@H]2O [III.5, (1S,2R,13R,14S,17S,18S)-7-(4-hydroxyphenyl)-2,18-dimethyl-8-thia-6-azapentacyclo[11.7.0.02,10.05,9.014,18]icosa-5(9),6,10-trien-17-ol]
Breast Cancer, BT-549
  Growth Percent: 59.26%
Breast Cancer, HS 578T
  Growth Percent: 4.16%
Breast Cancer, MCF7
  Growth Percent: 42.59%
Breast Cancer, MDA-MB-231/ATCC
  Growth Percent: 56.24%
Breast Cancer, MDA-MB-468
  Growth Percent: 81.03%
Breast Cancer, T-47D
  Growth Percent: 67.74%
CNS Cancer, SF-268
  Growth Percent: 48.55%
CNS Cancer, SNB-19
  Growth Percent: 71.05%
CNS Cancer, SNB-75
  Growth Percent: 26.42%
CNS Cancer, U251
  Growth Percent: 20.08%
Colon Cancer, COLO 205
  Growth Percent: 77.66%
Colon Cancer, HCC-2998
  Growth Percent: 95.33%
Colon Cancer, HCT-116
  Growth Percent: 43.80%
Colon Cancer, HT29
  Growth Percent: 19.90%
Colon Cancer, KM12
  Growth Percent: 60.79%
Colon Cancer, SW-620
  Growth Percent: 71.71%
Leukemia, CCRF-CEM
  Growth Percent: 13.10%
Leukemia, HL-60(TB)
  Growth Percent: 22.65%
Leukemia, K-562
  Growth Percent: 13.87%
Leukemia, MOLT-4
  Growth Percent: −23.23%
Leukemia, RPMI-8226
  Growth Percent: −36.92%
Leukemia, SR
  Growth Percent: 5.95%
Melanoma, LOX IMVI
  Growth Percent: 25.37%
Melanoma, M14
  Growth Percent: 60.54%
Melanoma, MALME-3M
  Growth Percent: 72.42%
Melanoma, MDA-MB-435
  Growth Percent: 91.96%
Melanoma, SK-MEL-2
  Growth Percent: 44.94%
Melanoma, SK-MEL-5
  Growth Percent: 71.98%
Melanoma, SK-MEL-28
  Growth Percent: 53.31%
Melanoma, UACC-62
  Growth Percent: 28.69%
Melanoma, UACC-257
  Growth Percent: 66.19%
[1]
  Growth Percent: 52.15%
[2]
  Growth Percent: 63.56%
[3]
  Growth Percent: 46.75%
[4]
  Growth Percent: 74.72%
[5]
  Growth Percent: 109.87%
[6]
  Growth Percent: 92.82%
[7]
  Growth Percent: 41.91%
Ovarian Cancer, IGROV1
  Growth Percent: 80.66%
Ovarian Cancer, NCI/ADR-RES
  Growth Percent: 76.79%
Ovarian Cancer, OVCAR-3
  Growth Percent: 38.63%
Ovarian Cancer, OVCAR-4
  Growth Percent: 81.75%
Ovarian Cancer, OVCAR-5
  Growth Percent: 106.38%
Ovarian Cancer, OVCAR-8
  Growth Percent: 74.18%
Ovarian Cancer, SK-OV-3
  Growth Percent: 38.63%
Prostate Cancer, DU-145
  Growth Percent: 63.77%
Prostate Cancer, PC-3
  Growth Percent: 49.49%
Renal Cancer, 786-0
  Growth Percent: 8.35%
Renal Cancer, A498
  Growth Percent: 49.45%
Renal Cancer, ACHN
  Growth Percent: 46.04%
Renal Cancer, CAKI-1
  Growth Percent: 61.32%
Renal Cancer, RXF 393
  Growth Percent: −46.32%
Renal Cancer, SN12C
  Growth Percent: 96.68%
Renal Cancer, TK-10
  Growth Percent: 89.27%
Renal Cancer, UO-31
  Growth Percent: 9.33%

## C[C@]12CCc3sc(Nc4cccc(O)c4)nc3C1=CC[C@@H]1[C@@H]2CC[C@]2(C)C(=O)CC[C@@H]12 [IIa.17, (1S,2R,13R,14S,18S)-7-(3-hydroxyanilino)-2,18-dimethyl-6-thia-8-azapentacyclo[11.7.0.02,10.05,9.014,18]icosa-5(9),7,10-trien-17-one]
Breast Cancer, BT-549
  Growth Percent: 17.42%
Breast Cancer, HS 578T
  Growth Percent: 7.41%
Breast Cancer, MCF7
  Growth Percent: −25.89%
Breast Cancer, MDA-MB-231/ATCC
  Growth Percent: 39.51%
Breast Cancer, MDA-MB-468
  Growth Percent: 32.20%
Breast Cancer, T-47D
  Growth Percent: −8.55%
CNS Cancer, SF-268
  Growth Percent: 43.09%
CNS Cancer, SNB-19
  Growth Percent: 57.90%
CNS Cancer, SNB-75
  Growth Percent: 37.28%
CNS Cancer, U251
  Growth Percent: 18.85%
Colon Cancer, COLO 205
  Growth Percent: 34.38%
Colon Cancer, HCC-2998
  Growth Percent: 81.46%
Colon Cancer, HCT-116
  Growth Percent: −23.66%
Colon Cancer, HT29
  Growth Percent: −29.01%
Colon Cancer, KM12
  Growth Percent: 34.70%
Colon Cancer, SW-620
  Growth Percent: −4.13%
Leukemia, CCRF-CEM
  Growth Percent: 12.99%
Leukemia, HL-60(TB)
  Growth Percent: 45.99%
Leukemia, K-562
  Growth Percent: 4.81%
Leukemia, MOLT-4
  Growth Percent: 5.52%
Leukemia, RPMI-8226
  Growth Percent: −13.60%
Leukemia, SR
  Growth Percent: 3.61%
Melanoma, LOX IMVI
  Growth Percent: −52.69%
Melanoma, M14
  Growth Percent: 54.77%
Melanoma, MALME-3M
  Growth Percent: 35.26%
Melanoma, MDA-MB-435
  Growth Percent: 42.59%
Melanoma, SK-MEL-2
  Growth Percent: 29.07%
Melanoma, SK-MEL-5
  Growth Percent: 64.76%
Melanoma, SK-MEL-28
  Growth Percent: 41.25%
Melanoma, UACC-62
  Growth Percent: 28.83%
Melanoma, UACC-257
  Growth Percent: 79.56%
[1]
  Growth Percent: 55.43%
[2]
  Growth Percent: 71.36%
[3]
  Growth Percent: 27.50%
[8]
  Growth Percent: 64.31%
[4]
  Growth Percent: 63.65%
[5]
  Growth Percent: 94.46%
[6]
  Growth Percent: 72.84%
[7]
  Growth Percent: 43.90%
Ovarian Cancer, IGROV1
  Growth Percent: −12.12%
Ovarian Cancer, NCI/ADR-RES
  Growth Percent: 78.93%
Ovarian Cancer, OVCAR-3
  Growth Percent: −3.79%
Ovarian Cancer, OVCAR-4
  Growth Percent: 52.06%
Ovarian Cancer, OVCAR-5
  Growth Percent: 109.51%
Ovarian Cancer, OVCAR-8
  Growth Percent: 17.89%
Ovarian Cancer, SK-OV-3
  Growth Percent: 37.28%
Prostate Cancer, DU-145
  Growth Percent: 12.72%
Prostate Cancer, PC-3
  Growth Percent: 28.08%
Renal Cancer, 786-0
  Growth Percent: −0.52%
Renal Cancer, ACHN
  Growth Percent: 5.12%
Renal Cancer, CAKI-1
  Growth Percent: 37.11%
Renal Cancer, RXF 393
  Growth Percent: −6.67%
Renal Cancer, SN12C
  Growth Percent: 46.55%
Renal Cancer, TK-10
  Growth Percent: 10.18%
Renal Cancer, UO-31
  Growth Percent: 22.19%

## C[C@]12CCc3nc(Nc4ccc(O)cc4)sc3C1=CC[C@@H]1[C@@H]2CC[C@]2(C)C(=O)CC[C@@H]12 [IIa.35]
Breast Cancer, BT-549
  Growth Percent: 45.59%
Breast Cancer, HS 578T
  Growth Percent: 53.60%
Breast Cancer, MCF7
  Growth Percent: 3.11%
Breast Cancer, MDA-MB-231/ATCC
  Growth Percent: 35.27%
Breast Cancer, MDA-MB-468
  Growth Percent: −36.91%
Breast Cancer, T-47D
  Growth Percent: 10.57%
CNS Cancer, SF-268
  Growth Percent: 58.35%
CNS Cancer, SNB-19
  Growth Percent: 64.60%
CNS Cancer, SNB-75
  Growth Percent: 41.74%
CNS Cancer, U251
  Growth Percent: 19.48%
Colon Cancer, COLO 205
  Growth Percent: 38.45%
Colon Cancer, HCC-2998
  Growth Percent: 97.70%
Colon Cancer, HCT-116
  Growth Percent: −72.37%
Colon Cancer, HT29
  Growth Percent: 10.26%
Colon Cancer, KM12
  Growth Percent: 46.68%
Colon Cancer, SW-620
  Growth Percent: −32.15%
Leukemia, CCRF-CEM
  Growth Percent: 8.33%
Leukemia, HL-60(TB)
  Growth Percent: 8.98%
Leukemia, K-562
  Growth Percent: 10.77%
Leukemia, MOLT-4
  Growth Percent: 10.99%
Leukemia, RPMI-8226
  Growth Percent: −24.54%
Leukemia, SR
  Growth Percent: 9.60%
Melanoma, LOX IMVI
  Growth Percent: −8.01%
Melanoma, M14
  Growth Percent: 58.13%
Melanoma, MALME-3M
  Growth Percent: 29.71%
Melanoma, MDA-MB-435
  Growth Percent: 35.34%
Melanoma, SK-MEL-2
  Growth Percent: 72.46%
Melanoma, SK-MEL-5
  Growth Percent: 62.03%
Melanoma, SK-MEL-28
  Growth Percent: 77.86%
Melanoma, UACC-62
  Growth Percent: 55.82%
Melanoma, UACC-257
  Growth Percent: 73.38%
[1]
  Growth Percent: 79.28%
[2]
  Growth Percent: 98.04%
[3]
  Growth Percent: 92.69%
[8]
  Growth Percent: 125.71%
[4]
  Growth Percent: 70.16%
[5]
  Growth Percent: 102.70%
[6]
  Growth Percent: 93.36%
[7]
  Growth Percent: 65.57%
Ovarian Cancer, IGROV1
  Growth Percent: 13.07%
Ovarian Cancer, NCI/ADR-RES
  Growth Percent: 68.59%
Ovarian Cancer, OVCAR-3
  Growth Percent: −31.67%
Ovarian Cancer, OVCAR-4
  Growth Percent: 57.12%
Ovarian Cancer, OVCAR-5
  Growth Percent: 116.69%
Ovarian Cancer, OVCAR-8
  Growth Percent: 35.92%
Ovarian Cancer, SK-OV-3
  Growth Percent: 107.77%
Prostate Cancer, DU-145
  Growth Percent: 10.45%
Prostate Cancer, PC-3
  Growth Percent: 39.10%
Renal Cancer, 786-0
  Growth Percent: −3.03%
Renal Cancer, A498
  Growth Percent: 100.87%
Renal Cancer, ACHN
  Growth Percent: −17.29%
Renal Cancer, CAKI-1
  Growth Percent: 47.13%
Renal Cancer, RXF 393
  Growth Percent: −16.18%
Renal Cancer, SN12C
  Growth Percent: 30.38%
Renal Cancer, TK-10
  Growth Percent: 22.82%
Renal Cancer, UO-31
  Growth Percent: −48.83%
